# Molecular target: T1, beta-site amyloid cleaving enzyme (BACE)1 (Homo sapiens, UniProt P56817)
# T1 construct: gene BACE1
# Experiment: BACE1 FRET assay kit (Panvera), Swedish-mutant peptide substrate
# Type: biochemical
# T1 sequence (P56817 46-457): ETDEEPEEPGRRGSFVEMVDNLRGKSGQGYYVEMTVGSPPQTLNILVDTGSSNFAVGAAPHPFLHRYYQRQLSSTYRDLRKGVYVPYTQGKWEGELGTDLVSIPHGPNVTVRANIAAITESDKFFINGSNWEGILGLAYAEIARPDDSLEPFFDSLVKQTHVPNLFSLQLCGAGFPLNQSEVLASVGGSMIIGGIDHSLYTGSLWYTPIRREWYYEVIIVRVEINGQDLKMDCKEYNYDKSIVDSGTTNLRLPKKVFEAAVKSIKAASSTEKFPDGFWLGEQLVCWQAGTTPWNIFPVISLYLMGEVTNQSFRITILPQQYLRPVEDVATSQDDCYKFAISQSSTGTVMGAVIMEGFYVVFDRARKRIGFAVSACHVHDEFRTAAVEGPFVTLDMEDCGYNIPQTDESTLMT
smiles,measurement,value
"COc1ccc(-c2oc3c(CC=C(C)C)c(O)cc(O)c3c(=O)c2O)cc1 [ICT, Icaritin]",IC50,5.7 ± 1.09 µM

# Source: paper PMC6910110, “Icaritin, an inhibitor of beta-site amyloid cleaving enzyme-1, inhibits secretion of amyloid precursor protein in APP-PS1-HEK293 cells by impeding the amyloidogenic pathway” (PeerJ, 2019)
